Experimental data published in ChEMBL document CHEMBL5291721, “A preclinical secondary pharmacology resource illuminates target-adverse drug reaction associations of marketed drugs” (Nat Commun, 2023).

Experiments:
Adenosine receptor A1 = target: T1, Adenosine receptor A1 (Homo sapiens, UniProt P30542)
T1 sequence (P30542 whole entry): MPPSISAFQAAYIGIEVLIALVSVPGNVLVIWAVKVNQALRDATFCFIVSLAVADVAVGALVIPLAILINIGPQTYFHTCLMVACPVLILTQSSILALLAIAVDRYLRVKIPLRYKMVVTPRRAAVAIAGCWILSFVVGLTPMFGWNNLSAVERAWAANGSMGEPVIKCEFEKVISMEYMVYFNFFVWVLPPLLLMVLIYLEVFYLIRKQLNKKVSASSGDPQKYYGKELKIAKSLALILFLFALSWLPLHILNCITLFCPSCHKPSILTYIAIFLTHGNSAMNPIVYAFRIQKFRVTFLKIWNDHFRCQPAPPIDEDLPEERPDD

[1] = target: T2, Alpha-1A adrenergic receptor (Homo sapiens, UniProt P35348); type: functional, cell-based
T2 sequence (P35348 whole entry): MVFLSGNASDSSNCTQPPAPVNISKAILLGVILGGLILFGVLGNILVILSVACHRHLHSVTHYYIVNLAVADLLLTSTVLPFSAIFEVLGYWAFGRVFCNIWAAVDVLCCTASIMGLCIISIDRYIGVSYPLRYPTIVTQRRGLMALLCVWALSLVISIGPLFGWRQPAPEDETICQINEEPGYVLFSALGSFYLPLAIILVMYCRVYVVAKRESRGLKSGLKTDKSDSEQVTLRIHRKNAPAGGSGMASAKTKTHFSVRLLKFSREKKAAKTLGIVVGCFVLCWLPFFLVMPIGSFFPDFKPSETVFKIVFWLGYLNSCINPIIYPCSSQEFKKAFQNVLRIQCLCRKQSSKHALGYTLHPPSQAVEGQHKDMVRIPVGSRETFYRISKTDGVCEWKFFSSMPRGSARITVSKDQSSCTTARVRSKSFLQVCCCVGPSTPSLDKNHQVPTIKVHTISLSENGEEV

[2] = target: Neuronal acetylcholine receptor subunit alpha-4 (Homo sapiens, UniProt P43681)
Neuronal acetylcholine receptor subunit alpha-4, sequence (P43681 whole entry): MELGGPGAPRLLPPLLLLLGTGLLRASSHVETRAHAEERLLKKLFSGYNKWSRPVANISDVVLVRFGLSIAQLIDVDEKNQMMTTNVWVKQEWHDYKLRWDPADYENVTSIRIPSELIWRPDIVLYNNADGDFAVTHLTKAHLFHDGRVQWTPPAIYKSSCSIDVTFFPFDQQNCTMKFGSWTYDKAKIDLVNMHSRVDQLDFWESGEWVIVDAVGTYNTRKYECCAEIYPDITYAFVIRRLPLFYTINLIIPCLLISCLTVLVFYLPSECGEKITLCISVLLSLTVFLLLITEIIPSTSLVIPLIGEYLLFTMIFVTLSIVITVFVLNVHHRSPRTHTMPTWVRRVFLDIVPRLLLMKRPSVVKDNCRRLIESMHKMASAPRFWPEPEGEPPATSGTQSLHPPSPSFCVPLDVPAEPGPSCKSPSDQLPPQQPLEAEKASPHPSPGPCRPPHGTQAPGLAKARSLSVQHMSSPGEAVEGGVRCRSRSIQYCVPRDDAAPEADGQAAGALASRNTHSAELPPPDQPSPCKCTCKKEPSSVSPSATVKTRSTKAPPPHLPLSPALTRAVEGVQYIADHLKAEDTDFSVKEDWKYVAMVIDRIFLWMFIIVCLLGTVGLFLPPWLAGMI

[3] = target: 5-hydroxytryptamine receptor 2B (Homo sapiens, UniProt P41595); type: functional, cell-based
5-hydroxytryptamine receptor 2B, sequence (P41595 whole entry): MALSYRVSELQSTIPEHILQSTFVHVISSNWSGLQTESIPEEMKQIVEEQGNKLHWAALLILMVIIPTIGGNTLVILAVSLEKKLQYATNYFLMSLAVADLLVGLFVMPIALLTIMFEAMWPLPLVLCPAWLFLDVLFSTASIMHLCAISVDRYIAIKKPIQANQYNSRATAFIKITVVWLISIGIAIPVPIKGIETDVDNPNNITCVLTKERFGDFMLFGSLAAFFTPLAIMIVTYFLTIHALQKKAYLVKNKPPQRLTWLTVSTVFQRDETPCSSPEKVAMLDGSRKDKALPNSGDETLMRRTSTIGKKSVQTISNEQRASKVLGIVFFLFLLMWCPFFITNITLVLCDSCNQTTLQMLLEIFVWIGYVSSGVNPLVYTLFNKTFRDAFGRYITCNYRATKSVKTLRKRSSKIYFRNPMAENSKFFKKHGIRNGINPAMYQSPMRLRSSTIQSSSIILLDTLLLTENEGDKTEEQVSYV

[4] = target: T3, Gastrin/cholecystokinin type B receptor (Homo sapiens, UniProt P32239)
T3 sequence (P32239 whole entry): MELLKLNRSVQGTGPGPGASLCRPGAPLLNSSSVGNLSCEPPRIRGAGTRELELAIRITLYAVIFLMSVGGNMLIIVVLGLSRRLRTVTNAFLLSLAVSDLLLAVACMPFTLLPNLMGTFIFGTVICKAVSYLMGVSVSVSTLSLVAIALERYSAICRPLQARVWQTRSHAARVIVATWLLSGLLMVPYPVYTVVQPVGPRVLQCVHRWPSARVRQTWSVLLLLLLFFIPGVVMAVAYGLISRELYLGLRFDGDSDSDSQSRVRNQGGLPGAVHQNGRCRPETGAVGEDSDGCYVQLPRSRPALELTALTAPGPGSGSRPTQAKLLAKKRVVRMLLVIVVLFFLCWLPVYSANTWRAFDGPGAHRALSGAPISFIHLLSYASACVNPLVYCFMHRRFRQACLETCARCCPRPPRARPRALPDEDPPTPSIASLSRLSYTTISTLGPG

Thromboxane A2 receptor = target: T4, Thromboxane A2 receptor (Homo sapiens, UniProt P21731)
T4 sequence (P21731 whole entry): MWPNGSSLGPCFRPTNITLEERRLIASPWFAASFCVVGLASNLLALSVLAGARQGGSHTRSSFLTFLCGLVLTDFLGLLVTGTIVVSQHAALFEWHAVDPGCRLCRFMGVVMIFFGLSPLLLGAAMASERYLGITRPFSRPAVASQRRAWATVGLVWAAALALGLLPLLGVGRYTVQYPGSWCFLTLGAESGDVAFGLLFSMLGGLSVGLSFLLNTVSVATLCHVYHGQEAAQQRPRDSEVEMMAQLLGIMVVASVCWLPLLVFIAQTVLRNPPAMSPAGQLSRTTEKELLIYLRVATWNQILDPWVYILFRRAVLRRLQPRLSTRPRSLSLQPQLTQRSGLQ
Also: assay procedure not described here.

Compound	AC50 (Adenosine receptor A1) [µM]	AC50 [1] [µM]	AC50 [2] [µM]	AC50 [3] [µM]	AC50 [4] [µM]	AC50 (Thromboxane A2 receptor) [µM]
CC(=N)N1CC[C@H](SC2=C(C(=O)O)N3C(=O)[C@H]([C@@H](C)O)[C@H]3C2)C1	> 300	> 300	170	> 300		
CC(/C=C1\SC(=S)N(CC(=O)O)C1=O)=C\c1ccccc1	15	> 30	28	> 30	> 30	27
CC1(C)S[C@@H]2[C@H](NC(=O)[C@H](N)c3ccc(O)cc3)C(=O)N2[C@H]1C(=O)O [AMOXICILLIN]	> 30	> 30	> 30	> 30	> 30	> 30
O=C1CN2Cc3c(ccc(Cl)c3Cl)N=C2N1 [ANAGRELIDE]	> 30	> 30	> 10	> 10	> 30	> 30
CNCC[C@@H](Oc1ccccc1C)c1ccccc1 [ATOMOXETINE]	> 30	> 30	> 30	25	> 30	> 30
CCc1oc2ccccc2c1C(=O)c1cc(Br)c(O)c(Br)c1 [BENZBROMARONE]	> 30	> 30	> 30	1.53	> 30	29
C=C(C)[C@@H]1CCC(C)=C[C@H]1c1c(O)cc(CCCCC)cc1O [CANNABIDIOL]	> 30	> 30	> 30	2.28		
CO/N=C(\C(=O)N[C@@H]1C(=O)N2C(C(=O)O)=C(COC(N)=O)CS[C@H]12)c1ccco1 [CEFUROXIME]	> 30	> 30	> 30	> 30	> 30	
[H]/N=C(\N/C(=N/[H])NCCCCCCNC(=N)NC(=N)Nc1ccc(Cl)cc1)Nc1ccc(Cl)cc1 [CHLORHEXIDINE]	> 30	> 30	> 30	1.26		> 30
Clc1cccc(Cl)c1N=C1NCCN1 [CLONIDINE]	> 30		> 10	> 10	> 30	> 30
COC(=O)[C@H](c1ccccc1Cl)N1CCc2sccc2C1 [CLOPIDOGREL]	> 30	> 30	> 30	2	> 30	> 30
CN1C[C@H](C(=O)N[C@]2(C)O[C@@]3(O)[C@@H]4CCCN4C(=O)[C@H](Cc4ccccc4)N3C2=O)C[C@@H]2c3cccc4[nH]cc(c34)C[C@H]21 [DIHYDROERGOTAMINE]	> 30	1.7	> 10		> 30	13.7
CNCC[C@H](Oc1cccc2ccccc12)c1cccs1 [DULOXETINE]	> 30		> 10	12	> 30	> 30
CC1(C)O[C@@H]2C[C@H]3[C@@H]4C[C@H](F)C5=CC(=O)C=C[C@]5(C)[C@H]4[C@@H](O)C[C@]3(C)[C@]2(C(=O)CO)O1 [FLUNISOLIDE]	> 30	> 30	> 30	> 30		
Nc1nc(O)c2ncn(COC(CO)CO)c2n1 [GANCICLOVIR]	> 30	> 30	> 30	> 30	> 30	> 30
C[C@H]1Oc2cc(cnc2N)-c2c(nn(C)c2C#N)CN(C)C(=O)c2ccc(F)cc21 [LORLATINIB]	> 30	> 30	> 30	14		

Compound	AC50 (Adenosine receptor A1) [µM]	AC50 [1] [µM]	AC50 [2] [µM]	AC50 [3] [µM]	AC50 [4] [µM]	AC50 (Thromboxane A2 receptor) [µM]
Cc1cnc(NC(=O)C2=C(O)c3ccccc3S(=O)(=O)N2C)s1 [MELOXICAM]	> 30	> 30	> 10	> 10	> 30	> 30
CC[C@@H](CO)NC(=O)[C@@H]1C=C2c3cccc4[nH]cc(c34)C[C@H]2N(C)C1 [METHYLERGONOVINE]	> 30	0.02	> 30		> 30	> 30
CNCCC=C1c2ccccc2CCc2ccccc21 [NORTRIPTYLINE]	> 30	> 30	> 30	0.73	> 30	> 30
COc1ccnc(C[S+]([O-])c2nc3ccc(OC(F)F)cc3[nH]2)c1OC (stereo unspecified) [PANTOPRAZOLE]	> 30	> 30	> 10	> 10	> 30	> 30
COc1ccc(Cc2nccc3cc(OC)c(OC)cc23)cc1OC [PAPAVERINE]	> 30	> 30	> 30	> 30	> 30	> 30
O=C1NC(=O)C(c2ccccc2)(c2ccccc2)N1 [PHENYTOIN]	> 30	> 30	> 30	> 30	> 30	> 30
CC(C)C[C@H](CN)CC(=O)O [PREGABALIN]	> 30		> 30	> 30	> 30	> 30
CCOc1cc(CC(=O)N[C@@H](CC(C)C)c2ccccc2N2CCCCC2)ccc1C(=O)O [REPAGLINIDE]	> 30	27	> 30	> 30		
NC(=O)c1ncn([C@@H]2O[C@H](CO)[C@@H](O)[C@H]2O)n1 [RIBAVIRIN]		> 30	> 10	> 10		> 10
O=C(Nc1c(Cl)cncc1Cl)c1ccc(OC(F)F)c(OCC2CC2)c1 [ROFLUMILAST]	> 30	> 30	> 30	> 30	> 30	> 30
CCCN(CCC)CCc1cccc2c1CC(=O)N2 [ROPINIROLE]	> 30	6.93	> 30		> 30	> 30
CCCN(CCc1cccs1)[C@H]1CCc2c(O)cccc2C1 [ROTIGOTINE]	> 30		> 30			
CC[C@H]1OC(=O)[C@H](C)[C@@H](O[C@H]2C[C@@](C)(OC)[C@@H](O)[C@H](C)O2)[C@H](C)[C@@H](O[C@@H]2O[C@H](C)C[C@H](N(C)C)[C@H]2O)[C@](C)(O)C[C@@H](C)/C(=N\OCOCCOC)[C@H](C)[C@@H](O)[C@]1(C)O [ROXITHROMYCIN]	> 30	> 30	> 30	> 30		
CC(C)N(CCCCOCC(=O)NS(C)(=O)=O)c1cnc(-c2ccccc2)c(-c2ccccc2)n1 [SELEXIPAG]	> 30	> 30	> 30	12	> 10	23.9
CC(=O)S[C@@H]1CC2=CC(=O)CC[C@]2(C)[C@H]2CC[C@@]3(C)[C@@H](CC[C@@]34CCC(=O)O4)[C@H]12 [SPIRONOLACTONE]	> 30	> 30	> 30	29	> 30	> 30
Cc1cc(CC(=O)O)n(C)c1C(=O)c1ccc(Cl)cc1 [ZOMEPIRAC]	> 30	> 30	> 30	> 30	> 30	> 30
